pEC50: −log10 of the molar value.

We go through one molecule from article PMC8429421, “Structural basis for the tryptophan sensitivity of TnaC-mediated ribosome stalling” (Nature Communications, 2021).

The target of this experiment is T1, TnaC–ribosome complex (TnaC–70S) (Escherichia coli, UniProt P0AD89+P61175).
T1 construct: nascent 24-residue TnaC as peptidyl-tRNA(Pro) in E. coli 70S ribosome; L-Trp site formed by TnaC, uL22 Lys90 and 23S rRNA (Psi746, G748, A752, U2609); cell-free translation (PURExpress; RTS100 HY for cryo-EM)
Description: toeprinting of stalled ribosomes in reconstituted cell-free translation, hyperbolic fit; cryo-EM structure […] Å. As to conditions: PURExpress lacking amino acids, other 19 amino acids 0.3 mM each, 37 °C, 30 min; arrest at codon 24; apparent functional value, not an equilibrium constant; read-out: [L-Trp]0.5. It is filed as biochemical.

T1 sequence (P0AD89 whole entry, one chain of several): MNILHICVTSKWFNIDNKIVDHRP

`N[C@@H](Cc1c[nH]c2ccccc12)C(=O)O` [L-Trp]: the pEC50 was 3.49.
